Structures can show the parent of a compound that is named as a salt.
What was measured:
[1] = system: SARS-CoV-2 clinical isolate (2019-nCoV/USA-WA1/2020); experiment: Anti-viral activity against SARS-CoV-2 in HBEC air-liquid-interface cultures (apical viral titer by TCID50); type: cell-based
[2] = system: patients with COVID-19 pneumonia; experiment: Pilot study / compassionate use of opaganib in hospitalized COVID-19 pneumonia patients; type: in vivo, human
Text: Return to room air or a specific SpO2 oxygen saturation on room air. Assessment of on-treatment viral load changes, and changes in D-dimer, cardiac troponin, LDH and ferritin levels. Study Design:
Patients entered a screening period of up to 1 week. Eligible patients entered the treatment period for up to 2 weeks. All participants were followed for 2 weeks after their last dose of study drug, at the end of the 2 week treatment period, or once they had 2 consecutive daily negative viral swabs for the COVID-19 virus or at after premature drug discontinuation prior to Day 14. The maximum duration of study participation was 35 days […].
• 1. Adult male or female≥18 to ≤75 years of age, inclusive • 2. Proven COVID-19 infection and pneumonia not requiring mechanical ventilation or mechanically ventilated for no more than 24 hours at time of informed consent • 3. The patient, guardian or legally acceptable representative has signed a written IRB-approved informed consent. Key Exclusion Criteria: • 1. New York Heart Association Class III or IV, cardiac disease, myocardial infarction within the past 6 months, unstable arrhythmia, or evidence of ischemia on ECG • 2. Any co-morbidity that may add risk to the treatment in the judgement of the investigator. • 3. Pregnant (positive serum test) or nursing women • 4. Unwillingness or inability to comply with procedures required in this protocol. • 5. AST (SGOT) or ALT (SGPT)>2.5× upper limit of normal (ULN) • 6. Bilirubin>1.5×ULN (except where bilirubin increase is due to Gilbert's Syndrome) • 7. Serum creatinine>2.0×ULN • 8. Absolute neutrophil count<1000 cells/mm^3 • 9. Platelet count<75,000/mm^3 • 10. Hemoglobin<8.0 g/dL • 11. Currently taking warfarin, apixaban, argatroban or rivaroxaban • 12. Current drug or alcohol abuse Study Assessments: The following will be monitored daily (see Table 3): • Review of concomitant medications • Adverse Events • Physical exam • Vital signs (temperature, blood pressure, pulse rate, respiratory rate and oxygen saturation by pulse oximeter) • Clinical symptoms (cough, dyspnea, nausea, vomiting, diarrhea) • Nasopharyngeal viral swab • Serum chemistry • CBC with differential • Chest X-ray • Urinalysis
Each dose is administered with food or 15-30 minutes after tube-feeding, where appropriate.
These patients had moderate to severe COVID-19-related pneumonia with hypoxia on supplemental oxygen.
Five patients were included in the analysis, and for comparison purposes, we used a control group with same-sex, same-severity patients (baseline characteristics). Univariate comparisons between the groups were performed with chi-square test for categorical variables and t-test or MannWhitney U-test for continuous variables, as appropriate. Time variables were compared with Cox proportional hazard regression, adjusted for age and background illnesses. CRP and lymphocyte changes were compared utilizing a repeated measures general linear model with a Bonferroni correction for multiple comparison.

[3] = system: human bronchial epithelial cells (HBEC)
[4] = of 6 moderate-to-severe patients

O=C(NCc1ccncc1)C12CC3CC(C1)CC(c1ccc(Cl)cc1)(C3)C2 [opaganib, 3-(4-chlorophenyl)-adamantane-1-carboxylic acid (pyridin-4-ylmethyl) amide, hydrochloride salt]
50% inhibition reached in the concentration range tested ([1]; 0.05 to 11.25 μg/ml): neither 50% inhibition nor 50% cytotoxicity were reached
concentration from which complete inhibition of infectious virus production is seen ([1]; SARS-CoV-2-infected HBEC, 3 days incubation): ≥ 1 µg/mL
HR, time to weaning from HFNC, cases vs. controls ([2]; 95% CI: 0.07-1.7, p=0.2, Cox regression adjusted for age and background illnesses): 0.3
HR, time to ambient air, cases vs. controls ([2]; 95% CI: 0.15-1.5): 0.4
Lymphocytes, most recent ([2]; Patient 1 (14 d), baseline 1.6, 17 Apr. 2020): 2.8 (17 Apr. 2020) 10^3/mm^3
CRP, most recent ([2]; Patient 1 (14 d), baseline 15.1, 17 Apr. 2020): 1 (17 Apr. 2020) mg/L
Clinical Assessment ([2]; Patient 1 (14 d on opaganib), started severe on maximal OptiFlow 3 Apr. 2020): 3 Apr. 2020; RA by 16/4. As of 22/4, one negative
Lymphocytes, most recent ([2]; Patient 2 (14 d), baseline 1.1, 17 Apr. 2020): 2.1 (17 Apr. 2020) 10^3/mm^3
CRP, most recent ([2]; Patient 2 (14 d), baseline 14.2, 17 Apr. 2020): 4.8 (17 Apr. 2020) mg/L
Clinical Assessment ([2]; Patient 2 (14 d), started severe+, planning for intubation 7 Apr. 2020): 7 Apr. 2020; RA by 20 Apr. 4 2020, D/C on
Lymphocytes, most recent ([2]; Patient 3 (7 d), baseline 0.9, 17 Apr. 2020): 1.2 (17 Apr. 2020) 10^3/mm^3
CRP, most recent ([2]; Patient 3 (7 d), baseline 10.7, 17 Apr. 2020): 1.7 (17 Apr. 2020) mg/L
Clinical Assessment ([2]; Patient 3 (7 d), moderate-severe, on OptiFlow 13 Apr. 2020, RA by 17 Apr. 2020): 17 Apr. 2020, D/C on 19 Apr. 2020
Lymphocytes, most recent ([2]; Patient 4 (11 d), baseline 1.2, 22 Apr. 2020): 1 (22 Apr. 2020) 10^3/mm^3
CRP, most recent ([2]; Patient 4 (11 d), baseline 24.8, 22 Apr. 2020): 17.4 (22 Apr. 2020) mg/L
Clinical Assessment ([2]; Patient 4 (11 d), started severe+ 70% OptiFlow on 13 Apr. 2020): RA on 22 Apr. 2020
Clinical Assessment ([2]; Patient 5 (2 d), started moderate on 13 Apr. 2020, nasal cannula, D/C on 14 Apr. 2020 on RA): Dramatic improvement after one day on
Lymphocytes, most recent ([2]; Patient 6 (5 d), baseline 1.35, 24 Apr. 2020): 1.96 (24 Apr. 2020) 10^3/mm^3
CRP, most recent ([2]; Patient 6 (5 d), baseline 12.2, 24 Apr. 2020): 6.8 (24 Apr. 2020) mg/L
adverse event leading to discontinuation ([2]; Patient 7 (1 d), also on HCQ and azithromycin, may or may not be related to opaganib): opaganib started. Diarrhea the next day, all 3 meds were stopped, followed by worsening SOB, on 75% OptiFlow.
C-Reactive Protein (CRP) ([2]; all six patients): reduction
clinical improvement, including reduced supplemental oxygenation and higher lymphocyte counts ([2]; all six patients): measurable clinical improvement
median time to weaning from high-flow nasal cannula (HFNC) ([2]; cases, controls 15 days): 10 days
cases requiring mechanical ventilation ([2]; compared with 33% of controls): none
lymphocyte count change vs. matched controls ([2]; five patients vs. same-sex, same-severity control group): significantly faster increase
patients back to breathing room air [2, 4]: 5 patients
patients discharged from hospital [2, 4]: 3 patients
moderate to-severe patients improved significantly ([2]; of 6 patients treated (patient #7 excepted), opaganib plus standard-of-care): 6 patients
cell viability [3]: remained viable
50% cytotoxicity reached in the concentration range tested ([3]; human): neither 50% inhibition nor 50% cytotoxicity were reached

Source: patent publication US11471448B2 (priority 2020, dated 2022)
